Reference: ChEMBL document CHEMBL5465560, “Selectivity Literature for EUbOPEN Chemogenomic Library” (2024)

How the values were obtained:
[1] = biological target: T1, Serine/threonine-protein kinase MAK (Homo sapiens) (UniProt P20794); details: at 10 µM
T1 sequence (whole entry): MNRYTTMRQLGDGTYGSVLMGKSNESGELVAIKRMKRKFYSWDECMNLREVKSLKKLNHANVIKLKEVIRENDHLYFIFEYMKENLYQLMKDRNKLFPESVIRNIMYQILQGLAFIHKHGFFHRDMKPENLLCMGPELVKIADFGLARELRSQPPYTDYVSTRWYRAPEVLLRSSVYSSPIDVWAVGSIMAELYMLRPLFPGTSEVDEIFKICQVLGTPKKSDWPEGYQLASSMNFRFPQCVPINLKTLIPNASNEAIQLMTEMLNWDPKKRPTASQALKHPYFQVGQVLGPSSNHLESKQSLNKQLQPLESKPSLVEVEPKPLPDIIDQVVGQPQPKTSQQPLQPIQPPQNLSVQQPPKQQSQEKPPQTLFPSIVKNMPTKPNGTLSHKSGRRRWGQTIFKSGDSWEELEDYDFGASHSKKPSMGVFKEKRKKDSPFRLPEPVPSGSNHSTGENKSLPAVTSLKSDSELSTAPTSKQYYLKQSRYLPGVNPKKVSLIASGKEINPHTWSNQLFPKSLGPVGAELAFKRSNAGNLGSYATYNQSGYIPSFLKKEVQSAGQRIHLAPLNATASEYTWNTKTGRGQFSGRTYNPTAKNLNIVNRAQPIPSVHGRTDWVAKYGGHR

[2] = biological target: Histone-lysine N-methyltransferase KMT5C (Homo sapiens) (UniProt Q86Y97); test: Selectivity interaction (Transferase panel (protein, RNA, and DNA methyltransferases. and EP300 (acetyltransferase))) EUB0000270b SUV420H2
Chain of Histone-lysine N-methyltransferase KMT5C (Homo sapiens) (Q86Y97 whole entry, looked up): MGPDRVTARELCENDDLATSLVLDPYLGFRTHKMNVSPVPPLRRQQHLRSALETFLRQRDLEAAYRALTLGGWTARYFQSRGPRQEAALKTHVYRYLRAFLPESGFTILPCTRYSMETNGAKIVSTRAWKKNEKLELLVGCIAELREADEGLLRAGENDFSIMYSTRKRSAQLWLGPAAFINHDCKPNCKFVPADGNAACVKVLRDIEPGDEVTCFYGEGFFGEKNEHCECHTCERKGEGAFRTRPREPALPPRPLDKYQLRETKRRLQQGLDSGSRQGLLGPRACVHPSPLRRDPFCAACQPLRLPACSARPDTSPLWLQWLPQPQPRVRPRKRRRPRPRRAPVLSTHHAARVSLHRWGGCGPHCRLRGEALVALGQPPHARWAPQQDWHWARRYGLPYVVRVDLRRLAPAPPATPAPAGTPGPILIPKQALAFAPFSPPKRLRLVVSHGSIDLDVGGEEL

[3] = test system: Hepatocyte growth factor receptor (Homo sapiens), P08581 [M1250T]; test: (§1) Selectivity interaction (Kinase panel (Z-LYTE Assay)) EUB0001632a MET; details: at 10 µM
[4] = biological target: Hepatocyte growth factor receptor (Homo sapiens, UniProt P08581); test: as §1; details: at 10 µM
Chain of Hepatocyte growth factor receptor (P08581 whole entry): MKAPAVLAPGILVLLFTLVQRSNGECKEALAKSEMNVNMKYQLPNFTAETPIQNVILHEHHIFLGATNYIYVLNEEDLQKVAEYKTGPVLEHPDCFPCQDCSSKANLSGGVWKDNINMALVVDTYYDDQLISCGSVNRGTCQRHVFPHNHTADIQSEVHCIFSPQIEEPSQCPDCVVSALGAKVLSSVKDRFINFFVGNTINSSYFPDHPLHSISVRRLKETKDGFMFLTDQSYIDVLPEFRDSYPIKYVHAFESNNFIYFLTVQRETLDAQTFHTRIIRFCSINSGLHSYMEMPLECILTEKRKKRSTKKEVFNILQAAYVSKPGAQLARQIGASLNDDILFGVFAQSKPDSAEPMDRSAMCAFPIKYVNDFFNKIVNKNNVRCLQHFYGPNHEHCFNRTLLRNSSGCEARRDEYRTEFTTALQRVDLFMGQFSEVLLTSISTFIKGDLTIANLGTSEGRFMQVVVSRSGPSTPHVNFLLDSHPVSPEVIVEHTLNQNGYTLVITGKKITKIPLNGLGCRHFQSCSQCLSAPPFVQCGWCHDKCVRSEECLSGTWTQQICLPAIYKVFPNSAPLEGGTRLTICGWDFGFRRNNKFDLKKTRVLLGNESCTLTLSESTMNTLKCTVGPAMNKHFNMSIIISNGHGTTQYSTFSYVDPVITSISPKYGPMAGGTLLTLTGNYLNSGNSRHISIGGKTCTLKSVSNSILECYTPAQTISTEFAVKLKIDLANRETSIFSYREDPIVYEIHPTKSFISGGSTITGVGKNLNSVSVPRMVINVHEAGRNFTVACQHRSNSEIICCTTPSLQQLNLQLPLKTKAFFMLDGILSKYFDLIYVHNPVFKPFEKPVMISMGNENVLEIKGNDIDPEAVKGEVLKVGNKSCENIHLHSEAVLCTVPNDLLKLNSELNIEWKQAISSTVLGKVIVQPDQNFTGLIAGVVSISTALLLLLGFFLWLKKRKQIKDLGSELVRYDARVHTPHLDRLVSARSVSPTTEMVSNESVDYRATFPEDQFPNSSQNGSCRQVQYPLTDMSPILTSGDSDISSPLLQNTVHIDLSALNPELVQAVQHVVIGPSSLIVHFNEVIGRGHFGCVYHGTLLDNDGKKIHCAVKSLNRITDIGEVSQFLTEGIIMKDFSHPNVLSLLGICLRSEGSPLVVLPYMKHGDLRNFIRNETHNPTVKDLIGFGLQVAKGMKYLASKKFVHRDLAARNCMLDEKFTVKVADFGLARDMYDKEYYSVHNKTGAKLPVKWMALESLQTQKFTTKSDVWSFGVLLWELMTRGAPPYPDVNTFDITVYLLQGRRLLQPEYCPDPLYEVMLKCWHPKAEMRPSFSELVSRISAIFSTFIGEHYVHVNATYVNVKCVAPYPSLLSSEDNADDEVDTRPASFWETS

Misshapen-like kinase 1 = Misshapen-like kinase 1 (Homo sapiens, UniProt Q8N4C8); test: Selectivity interaction (Kinase panel (Z-LYTE Assay)) EUB0001632a MINK1; details: at 10 µM
Chain of Misshapen-like kinase 1 (Q8N4C8 whole entry, looked up): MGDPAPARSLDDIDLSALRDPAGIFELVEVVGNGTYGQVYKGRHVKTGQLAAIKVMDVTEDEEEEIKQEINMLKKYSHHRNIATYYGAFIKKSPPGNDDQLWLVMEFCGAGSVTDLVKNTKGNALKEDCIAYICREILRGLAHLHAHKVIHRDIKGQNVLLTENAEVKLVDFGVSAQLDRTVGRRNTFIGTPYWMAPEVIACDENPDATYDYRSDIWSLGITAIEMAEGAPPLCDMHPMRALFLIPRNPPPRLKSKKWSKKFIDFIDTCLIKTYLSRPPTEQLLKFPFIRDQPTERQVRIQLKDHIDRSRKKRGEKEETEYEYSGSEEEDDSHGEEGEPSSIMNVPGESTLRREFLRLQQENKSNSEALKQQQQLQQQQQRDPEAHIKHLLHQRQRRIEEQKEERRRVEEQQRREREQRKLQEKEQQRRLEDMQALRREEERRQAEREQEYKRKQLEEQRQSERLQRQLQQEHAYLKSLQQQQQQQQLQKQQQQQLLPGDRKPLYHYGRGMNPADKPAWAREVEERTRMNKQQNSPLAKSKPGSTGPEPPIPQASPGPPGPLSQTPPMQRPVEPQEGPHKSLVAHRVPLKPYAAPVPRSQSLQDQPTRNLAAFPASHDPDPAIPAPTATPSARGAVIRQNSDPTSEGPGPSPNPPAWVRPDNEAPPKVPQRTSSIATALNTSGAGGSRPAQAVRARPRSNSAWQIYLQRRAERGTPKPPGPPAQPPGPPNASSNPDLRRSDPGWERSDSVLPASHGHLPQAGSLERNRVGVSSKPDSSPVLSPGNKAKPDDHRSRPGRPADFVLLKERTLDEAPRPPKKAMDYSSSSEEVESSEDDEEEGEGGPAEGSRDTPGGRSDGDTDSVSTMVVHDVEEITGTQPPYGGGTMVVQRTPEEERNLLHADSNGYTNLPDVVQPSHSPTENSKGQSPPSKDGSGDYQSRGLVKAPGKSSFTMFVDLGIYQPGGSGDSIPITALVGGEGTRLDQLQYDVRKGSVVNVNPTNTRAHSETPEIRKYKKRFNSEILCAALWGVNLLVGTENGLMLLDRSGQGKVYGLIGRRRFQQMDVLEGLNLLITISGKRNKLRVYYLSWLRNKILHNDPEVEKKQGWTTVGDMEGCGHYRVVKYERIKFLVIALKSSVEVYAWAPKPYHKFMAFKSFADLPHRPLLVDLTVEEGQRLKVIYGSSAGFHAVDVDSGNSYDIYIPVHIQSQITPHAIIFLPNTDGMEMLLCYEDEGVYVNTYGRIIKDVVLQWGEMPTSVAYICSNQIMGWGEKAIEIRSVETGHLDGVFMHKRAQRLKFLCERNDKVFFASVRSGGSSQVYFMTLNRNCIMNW

[5] = biological target: T2, Serine/threonine-protein kinase Nek5 (Homo sapiens) (UniProt Q6P3R8); test: Selectivity interaction (KinomeScan (DiscoverX)) EUB0000595a NEK5; details: at 10 µM
T2 sequence (whole entry): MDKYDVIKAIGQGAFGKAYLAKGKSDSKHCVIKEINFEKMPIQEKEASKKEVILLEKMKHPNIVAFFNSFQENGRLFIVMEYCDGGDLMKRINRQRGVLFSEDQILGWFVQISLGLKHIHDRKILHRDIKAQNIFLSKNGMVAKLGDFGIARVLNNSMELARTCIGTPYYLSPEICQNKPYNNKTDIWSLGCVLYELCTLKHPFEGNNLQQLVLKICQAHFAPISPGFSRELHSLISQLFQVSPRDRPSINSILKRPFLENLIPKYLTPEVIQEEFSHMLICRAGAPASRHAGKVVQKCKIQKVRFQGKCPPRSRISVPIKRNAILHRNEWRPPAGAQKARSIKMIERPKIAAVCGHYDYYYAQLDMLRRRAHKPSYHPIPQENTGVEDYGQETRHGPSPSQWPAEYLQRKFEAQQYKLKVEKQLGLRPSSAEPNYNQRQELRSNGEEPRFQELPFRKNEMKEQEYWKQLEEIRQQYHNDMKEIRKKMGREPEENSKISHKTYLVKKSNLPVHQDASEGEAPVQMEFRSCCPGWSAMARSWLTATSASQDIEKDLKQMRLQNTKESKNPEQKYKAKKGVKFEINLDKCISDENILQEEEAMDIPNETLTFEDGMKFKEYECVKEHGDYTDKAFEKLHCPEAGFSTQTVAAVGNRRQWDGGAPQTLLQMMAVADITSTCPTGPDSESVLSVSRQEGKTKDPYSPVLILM

[6] = biological target: Serine/threonine-protein kinase Nek7 (Homo sapiens) (UniProt Q8TDX7); test: Selectivity interaction (KinomeScan (DiscoverX)) EUB0001079a NEK7; details: at 1 µM
Chain of Serine/threonine-protein kinase Nek7 (Homo sapiens) (Q8TDX7 whole entry, looked up): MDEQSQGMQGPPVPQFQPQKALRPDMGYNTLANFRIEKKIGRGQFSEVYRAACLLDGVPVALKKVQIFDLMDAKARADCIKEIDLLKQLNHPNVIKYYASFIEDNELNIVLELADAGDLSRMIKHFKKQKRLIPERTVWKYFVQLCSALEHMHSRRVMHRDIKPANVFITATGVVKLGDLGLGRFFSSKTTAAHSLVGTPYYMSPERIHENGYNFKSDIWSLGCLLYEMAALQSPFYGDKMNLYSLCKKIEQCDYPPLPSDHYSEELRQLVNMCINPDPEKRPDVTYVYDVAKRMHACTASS

[7] = biological target: T3, Inhibitor of nuclear factor kappa-B kinase subunit alpha (Homo sapiens) (UniProt O15111); test: Selectivity interaction (ProQinase) EUB0000171b CHUK
T3 sequence (whole entry): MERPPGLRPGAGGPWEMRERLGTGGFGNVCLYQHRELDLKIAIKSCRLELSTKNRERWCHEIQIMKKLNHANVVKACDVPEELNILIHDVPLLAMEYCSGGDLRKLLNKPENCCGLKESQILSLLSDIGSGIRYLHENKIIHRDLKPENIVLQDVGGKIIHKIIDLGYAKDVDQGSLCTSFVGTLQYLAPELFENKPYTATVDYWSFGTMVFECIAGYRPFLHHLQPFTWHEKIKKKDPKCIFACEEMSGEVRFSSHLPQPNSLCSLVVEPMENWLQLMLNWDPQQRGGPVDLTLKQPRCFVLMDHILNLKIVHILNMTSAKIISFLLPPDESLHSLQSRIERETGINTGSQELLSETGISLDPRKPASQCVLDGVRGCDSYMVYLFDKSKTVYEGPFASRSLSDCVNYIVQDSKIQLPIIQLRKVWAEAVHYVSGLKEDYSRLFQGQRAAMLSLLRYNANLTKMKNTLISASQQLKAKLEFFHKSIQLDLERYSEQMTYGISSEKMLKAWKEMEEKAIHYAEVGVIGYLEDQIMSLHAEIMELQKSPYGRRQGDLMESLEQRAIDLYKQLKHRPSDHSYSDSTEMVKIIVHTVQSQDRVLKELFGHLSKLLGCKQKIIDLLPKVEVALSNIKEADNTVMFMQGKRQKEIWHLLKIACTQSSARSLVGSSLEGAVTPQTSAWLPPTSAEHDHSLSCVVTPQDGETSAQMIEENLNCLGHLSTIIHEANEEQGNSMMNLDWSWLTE

[8] = biological target: RAF proto-oncogene serine/threonine-protein kinase (Homo sapiens) (UniProt P04049); test: Selectivity interaction (KinomeScan (DiscoverX)) EUB0000045b RAF1
Chain of RAF proto-oncogene serine/threonine-protein kinase (Homo sapiens) (P04049 whole entry): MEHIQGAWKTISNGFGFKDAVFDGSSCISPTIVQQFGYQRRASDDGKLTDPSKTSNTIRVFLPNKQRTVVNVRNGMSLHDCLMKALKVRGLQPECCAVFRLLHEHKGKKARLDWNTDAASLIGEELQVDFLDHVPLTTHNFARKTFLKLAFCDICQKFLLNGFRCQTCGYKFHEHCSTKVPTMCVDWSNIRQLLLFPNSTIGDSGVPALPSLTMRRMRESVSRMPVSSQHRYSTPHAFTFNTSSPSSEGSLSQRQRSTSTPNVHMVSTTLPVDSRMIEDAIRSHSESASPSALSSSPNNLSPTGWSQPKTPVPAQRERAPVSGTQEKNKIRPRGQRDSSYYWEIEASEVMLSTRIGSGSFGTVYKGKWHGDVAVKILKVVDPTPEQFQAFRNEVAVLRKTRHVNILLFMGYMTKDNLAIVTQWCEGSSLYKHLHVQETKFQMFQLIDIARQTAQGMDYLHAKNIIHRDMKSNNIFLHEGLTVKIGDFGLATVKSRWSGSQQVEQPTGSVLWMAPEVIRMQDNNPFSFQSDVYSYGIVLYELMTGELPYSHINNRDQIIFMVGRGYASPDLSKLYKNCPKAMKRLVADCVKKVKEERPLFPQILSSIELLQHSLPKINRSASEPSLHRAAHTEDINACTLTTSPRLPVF

[9] = biological target: Serine/threonine-protein kinase PLK2 (Homo sapiens, UniProt Q9NYY3); test: Selectivity interaction (KinomeScan (DiscoverX)) EUB0000618a PLK2; details: at 10 µM
Chain of Serine/threonine-protein kinase PLK2 (Q9NYY3 whole entry, looked up): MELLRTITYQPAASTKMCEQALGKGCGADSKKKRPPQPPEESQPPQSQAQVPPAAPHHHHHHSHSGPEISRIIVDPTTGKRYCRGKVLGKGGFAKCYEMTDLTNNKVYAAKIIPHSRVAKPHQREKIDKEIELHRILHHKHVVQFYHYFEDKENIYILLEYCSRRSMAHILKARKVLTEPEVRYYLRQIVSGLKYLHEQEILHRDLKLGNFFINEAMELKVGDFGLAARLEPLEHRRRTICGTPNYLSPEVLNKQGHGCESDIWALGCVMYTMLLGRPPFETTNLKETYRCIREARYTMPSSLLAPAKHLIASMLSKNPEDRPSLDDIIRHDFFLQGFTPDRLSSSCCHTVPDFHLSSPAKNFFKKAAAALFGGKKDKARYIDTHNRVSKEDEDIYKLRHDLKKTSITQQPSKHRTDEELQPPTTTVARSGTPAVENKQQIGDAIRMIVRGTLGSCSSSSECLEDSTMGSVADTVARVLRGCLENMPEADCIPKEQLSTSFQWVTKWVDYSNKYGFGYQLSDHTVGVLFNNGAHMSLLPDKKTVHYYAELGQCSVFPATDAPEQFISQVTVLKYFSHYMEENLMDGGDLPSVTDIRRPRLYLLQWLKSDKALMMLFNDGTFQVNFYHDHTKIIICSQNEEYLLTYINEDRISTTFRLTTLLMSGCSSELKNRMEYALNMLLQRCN

[10] = biological target: cAMP-dependent protein kinase catalytic subunit alpha (Homo sapiens, UniProt P17612); test: Selectivity interaction (KinomeScan (DiscoverX)) EUB0000607a PRKACA; details: at 10 µM

Cc1cc([C@@H](C)Nc2ccccc2C(=O)O)c2nc(N3CCOCC3)cc(=O)n2c1 [AZD-6482]
% of control [1]: 67%

Cc1cc(CN)cc(C)c1-c1ncn(C)c1-c1cncn1C
% activity ([2]; at 1 µM): > 90%
% activity ([2]; at 10 µM): > 80%

Cn1cc(-n2cnc3c(NCc4nc5cc(Cl)c(Cl)cc5[nH]4)nc(N4CCOCC4)nc32)cn1
% of control [3]: 1.3%
% of control [4]: -11.4%
% of control (Misshapen-like kinase 1): -3.28%

COCC(=O)NC/C=C/c1ccc2ncnc(Nc3ccc(Oc4ccc(C)nc4)c(C)c3)c2c1 [CP-724714]
% of control [5]: 100%

Nc1cnc(N2CCc3cc(S(=O)(=O)Nc4c(F)cc(Cl)cc4F)cc(N4CCCC4=O)c32)nc1 [TP-020n]
% of control [6]: 96%

C=CC(=O)Nc1cccc(C(=O)Nc2ccc(Nc3cc(-c4[nH]c(SC)nc4C)ccn3)cc2)c1
% of control ([7]; at 1 µM): 78%
% of control ([7]; at 5 µM): 57%

C=CC(=O)Nc1cc(-n2c(=O)ccc3cnc4ccc(-c5ccc(NS(C)(=O)=O)cc5)cc4c32)ccc1C
% of control ([8]; at 1 µM): 100%
% of control ([8]; at 10 µM): 100%

O[C@H]1CC[C@H](Nc2ncc3nc(Nc4c(F)cc(F)cc4F)n([C@H]4CCOC4)c3n2)CC1
% of control [9]: 100%

CNC(=O)Nc1ccc(-c2nc(N3CC4CCC(C3)O4)c3cnn(C4CCC5(CC4)OCCO5)c3n2)cc1
% of control [10]: 75%
